“And” between values parts separate entries of the source, which are not always exact repeats. Identical values can stand only once.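 Method: 48-hour compound exposure of cells in 96-well plates, five concentrations, linear interpolation of endpoints. GI50 = concentration required for 50% inhibition of growth. At the TGI there is no net growth.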
Legend:
Experiment in all cases: NCI tumour cell line growth inhibition, 48 h
[1] = system: SNB-75 CNS
[2] = system: KM20L2 colon
[3] = system: U251 CNS
[4] = system: NCI-H23 lung
[5] = system: HOP-18 NSCLC
[6] = system: DMS 273 small cell lung
[7] = system: SNB-19 CNS
[8] = system: HCT-116 colon
[9] = system: HCT-15 colon
[10] = system: SF-295 CNS
[11] = system: DLD-1 colon
[12] = system: SK-OV-3 ovarian
[13] = system: NCI-H460 lung
[14] = system: SW-620 colon
[15] = system: XF 498 CNS
[16] = system: HL-60(TB) leukemia
[17] = system: SR leukemia
[18] = system: COLO 205 colon
[19] = system: SF-539 CNS
[20] = system: 786-0 renal
[21] = system: M14 melanoma
[22] = system: EKVX NSCLC
[23] = system: HOP-62 NSCLC
[24] = system: SK-MEL-2 melanoma
[25] = system: OVCAR-8 ovarian
[26] = system: HT29 colon
[27] = system: NCI-H522 lung
[28] = system: A498 renal
[29] = system: SN12C renal
[30] = system: CAKI-1 renal
[31] = system: ACHN renal
[32] = system: KM12 colon
[33] = system: UACC-257 melanoma
[34] = system: RXF-631 renal
[35] = system: MALME-3M melanoma
[36] = system: SNB-78 CNS
[37] = system: UO-31 renal
[38] = system: OVCAR-3 ovarian
[39] = system: NCI-H226 lung
[40] = system: OVCAR-5 ovarian
[41] = system: DMS 114 small cell lung
[42] = system: UACC-62 melanoma
[43] = system: A549 NSCLC
[44] = system: OVCAR-4 ovarian
[45] = system: SK-MEL-5 melanoma
[46] = system: LXFL 529 NSCLC
[47] = system: RPMI-8226 leukemia
[48] = system: K-562 leukemia
[49] = system: CCRF-CEM leukemia
[50] = system: SK-MEL-28 melanoma
[51] = system: MOLT-4 leukemia
[52] = system: SF-268 CNS
[53] = system: M19-MEL melanoma
[54] = system: HCC-2998 colon
[55] = system: TK-10 renal
[56] = system: IGROV1 ovarian
[57] = system: MCF7 breast
[58] = system: SN12K1 renal
[59] = system: P388/ADR leukemia
[60] = system: RXF 393 renal
[61] = system: HOP-92 NSCLC
[62] = system: NCI/ADR-RES ovarian
[63] = system: P388 leukemia
[64] = system: LOX IMVI melanoma

SMILES: C/C(CN1C(=O)c2ccccc2C1=O)=N\NS(=O)(=O)c1cccc(C(=O)O)c1
- TGI [1]: > 100 µM
- TGI [2]: > 100 µM
- TGI [3]: > 100 µM
- TGI [4]: > 100 µM
- TGI [5]: > 100 µM
- TGI [6]: > 100 µM
- TGI [7]: > 100 µM
- TGI [8]: > 100 µM
- TGI [9]: > 100 µM
- TGI [10]: > 100 µM
- TGI [11]: > 100 µM
- TGI [12]: > 100 µM
- TGI [13]: > 100 µM
- TGI [14]: > 100 µM
- TGI [15]: > 100 µM
- TGI [16]: > 100 µM
- TGI [17]: > 100 µM
- TGI [18]: > 100 µM
- TGI [19]: > 100 µM
- TGI [20]: > 100 µM
- TGI [21]: > 100 µM
- TGI [22]: > 100 µM
- TGI [23]: > 100 µM
- TGI [24]: > 100 µM
- TGI [25]: > 100 µM
- TGI [26]: > 100 µM
- TGI [27]: > 100 µM
- TGI [28]: > 100 µM
- TGI [29]: > 100 µM
- TGI [30]: > 100 µM
- TGI [31]: > 100 µM
- TGI [32]: > 100 µM
- TGI [33]: > 100 µM
- TGI [34]: > 100 µM
- TGI [35]: > 100 µM
- TGI [36]: > 100 µM
- TGI [37]: > 100 µM
- TGI [38]: > 100 µM
- TGI [39]: > 100 µM
- TGI [40]: > 100 µM
- TGI [41]: > 100 µM
- TGI [42]: > 100 µM
- TGI [43]: > 100 µM
- TGI [44]: > 100 µM
- TGI [45]: > 100 µM
- TGI [46]: > 100 µM
- TGI [47]: > 100 µM
- TGI [48]: > 100 µM
- TGI [49]: > 100 µM
- TGI [50]: > 100 µM
- TGI [51]: > 100 µM
- TGI [52]: > 100 µM
- TGI [53]: > 100 µM
- TGI [54]: > 100 µM
- TGI [55]: > 100 µM
- TGI [56]: > 100 µM

SMILES: C=C1C(C)C2C(Cc3ccccc3)NC(=O)C23OC(=O)/C=C\CC(=O)CCC(C)C/C=C/C3C1O (centres undefined)
- GI50 [1]: 0.594 µM
- TGI [1]: 2.64 µM
- TGI [2]: 15.8 µM
- TGI [3]: 10.7 µM
- GI50 [57]: 0.695 µM and 1.39 µM
- TGI [57]: 5.1 µM
- TGI [4]: 12.5 µM
- TGI [5]: 1.94 µM
- TGI [6]: 14.1 µM
- TGI [7]: 12.9 µM
- TGI [8]: 7.35 µM
- TGI [58]: 3.43 µM
- TGI [9]: 4.41 µM
- TGI [10]: 13.9 µM
- TGI [11]: 3.36 µM
- TGI [59]: 2.1 µM
- TGI [12]: 19 µM
- TGI [13]: 21.7 µM
- TGI [14]: 3.82 µM
- TGI [15]: 1.07 µM
- GI50 [16]: 0.158 µM and 0.755 µM
- TGI [60]: 1.42 µM
- TGI [18]: 5.09 µM
- TGI [19]: 4.39 µM
- TGI [22]: 10.1 µM
- TGI [23]: 7.33 µM
- TGI [24]: 8.35 µM
- TGI [25]: 16.7 µM
- TGI [26]: 11.1 µM
- GI50 [27]: 0.366 µM
- TGI [27]: 0.931 µM and 2.52 µM
- TGI [28]: 5.32 µM
- GI50 [61]: 0.345 µM
- TGI [61]: 2.1 µM
- TGI [29]: 5.93 µM
- GI50 [30]: 0.474 µM
- TGI [30]: 2.24 µM
- TGI [32]: 12.7 µM
- TGI [33]: 3.89 µM
- TGI [35]: 5.18 µM
- TGI [36]: 2.08 µM
- GI50 [37]: 0.913 µM
- TGI [37]: 2.72 µM
- GI50 [38]: 0.384 µM
- TGI [38]: 7.9 µM
- GI50 [39]: 0.635 µM
- TGI [39]: 10.3 µM
- TGI [40]: 25.2 µM
- TGI [41]: 6.61 µM
- TGI [42]: 11.2 µM
- TGI [43]: 20.9 µM
- TGI [62]: 33.4 µM
- TGI [63]: 0.385 µM
- TGI [44]: 7.39 µM
- TGI [45]: 16.3 µM
- GI50 [47]: 0.932 µM
- TGI [47]: 5.21 µM
- TGI [48]: 5.79 µM
- GI50 [49]: 0.135 µM and 0.216 µM
- TGI [50]: 3.92 µM
- TGI [64]: 3.64 µM
- GI50 [51]: 1.01 µM
- TGI [51]: 3.83 µM
- TGI [52]: 7.48 µM
- TGI [53]: 12.5 µM
- TGI [54]: 18.5 µM
- TGI [55]: 0.722 µM
- TGI [56]: 10.6 µM

SMILES: Nc1c(S(=O)(=O)O)cc(S(=O)(=O)O)c2ccc(N=Nc3ccc(/C=C/c4ccc(N=Nc5ccc6c(S(=O)(=O)O)cc(S(=O)(=O)O)c(N)c6c5O)cc4S(=O)(=O)O)c(S(=O)(=O)O)c3)c(O)c12
- TGI [1]: > 100 µM
- TGI [2]: > 100 µM
- TGI [3]: > 100 µM
- TGI [57]: > 100 µM
- TGI [4]: > 100 µM
- TGI [5]: > 100 µM
- TGI [6]: > 100 µM
- TGI [7]: > 100 µM
- TGI [8]: > 100 µM
- TGI [58]: > 100 µM
- TGI [9]: > 100 µM
- TGI [10]: > 100 µM
- TGI [11]: > 100 µM
- TGI [12]: > 100 µM
- TGI [13]: > 100 µM
- TGI [14]: > 100 µM
- TGI [15]: > 92.9 µM
- TGI [16]: > 100 µM
- TGI [60]: > 100 µM
- TGI [18]: > 100 µM
- TGI [19]: > 100 µM
- TGI [22]: > 100 µM
- TGI [23]: > 100 µM
- TGI [24]: > 100 µM
- TGI [25]: > 100 µM
- TGI [26]: > 100 µM
- TGI [27]: > 100 µM
- TGI [28]: > 100 µM
- TGI [61]: > 100 µM
- TGI [29]: > 100 µM
- TGI [32]: > 100 µM
- TGI [33]: > 100 µM
- TGI [35]: > 100 µM
- TGI [36]: > 100 µM
- TGI [37]: > 100 µM
- TGI [38]: > 100 µM
- TGI [39]: > 100 µM
- TGI [40]: > 100 µM
- TGI [41]: > 100 µM
- TGI [42]: > 100 µM
- TGI [43]: > 100 µM
- TGI [62]: > 100 µM
- TGI [63]: > 100 µM
- TGI [44]: > 100 µM
- TGI [45]: > 100 µM
- TGI [47]: > 100 µM
- TGI [48]: > 100 µM
- TGI [49]: > 100 µM
- TGI [50]: > 100 µM
- TGI [64]: > 100 µM
- TGI [51]: > 100 µM
- TGI [52]: > 100 µM
- TGI [53]: > 100 µM
- TGI [54]: > 100 µM
- TGI [56]: > 100 µM
